Laboratory results from patent publication US8962621B2 (Shanghai Institute of Pharmaceutical Industry, priority 2010, dated 2015).

What was measured:
[1] = test system: Histidine auxotroph mutant of mouse salmonella TA97, TA98, TA100 and TA102; type: cell-based
Text: 5. […] 6. Bacterial Reverse Mutation Test of Compounds VI-1 VI-2 and VI16 • Strains: Histidine auxotroph mutant of mouse salmonella TA97, TA98, TA100 and TA102. • Test method: The one reported in Maron DM et al: (1983) Mutay Res. 113, 173-216 is used. • Results: The test consists of two parts, i.e., −S9 and +S9. […] No bacteriostatic actions to all the strains are observed at all the other dosages, and the growth background is good.

DA reuptake = assay: Oxidation tremor test (oxotremorine-induced tremors); type: in vivo, mice
Text: (§1) Tests of the 5-hydroxytryptophan (DL-5-HTP) potentiation in mice, Yohimbine toxicity enhancement in mice and oxidation tremors can verify a compound's inhibition effect on 5-HT, NA and DA reuptake. Compound VI-2 is selected for the tests.
a) Principles • The pathogenesis of paralysis agitans is primarily related to the imbalance between DA function and Ach function. […] If the same function can be exerted in vivo, VI-2 will be able to partially antagonize the symptoms induced by an M receptor agonist.
b) Test Method • This test consists of 6 experimental groups: Model control group, VI-2-1 (300 mg/kg) group, VI-2-2 (200 mg/kg) group, VI-2-3 (120 mg/kg) group, VI-2-4 (60 mg/kg) group and VI-2-5 (30 mg/kg) group. For each VI-2 group, the compound at the corresponding dosage is administrated orally, or as in the case of the Model control group, N.S is given to the animals. One hour after the treatment, oxotremorine (0.5 mg/kg, 0.1 mL/10 g) is administrated by intraperitoneal injection to the mice in all groups. Responses of the mice are observed.

5-HT Transporter (hSERT) = 5-HT Transporter (hSERT) (Homo sapiens, UniProt P31645); assay: Inhibition of [3H]-5-HT reuptake in HEK 293 cells stably expressing hSERT;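 further: compound preincubated 10 min at 30 °C, then 10 min uptake, filter-bound radioactivity counted by scintillation, inhibition relative to total (blank) minus non-specific (positive control) uptake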
Sequence of 5-HT Transporter (hSERT) (P31645 whole entry): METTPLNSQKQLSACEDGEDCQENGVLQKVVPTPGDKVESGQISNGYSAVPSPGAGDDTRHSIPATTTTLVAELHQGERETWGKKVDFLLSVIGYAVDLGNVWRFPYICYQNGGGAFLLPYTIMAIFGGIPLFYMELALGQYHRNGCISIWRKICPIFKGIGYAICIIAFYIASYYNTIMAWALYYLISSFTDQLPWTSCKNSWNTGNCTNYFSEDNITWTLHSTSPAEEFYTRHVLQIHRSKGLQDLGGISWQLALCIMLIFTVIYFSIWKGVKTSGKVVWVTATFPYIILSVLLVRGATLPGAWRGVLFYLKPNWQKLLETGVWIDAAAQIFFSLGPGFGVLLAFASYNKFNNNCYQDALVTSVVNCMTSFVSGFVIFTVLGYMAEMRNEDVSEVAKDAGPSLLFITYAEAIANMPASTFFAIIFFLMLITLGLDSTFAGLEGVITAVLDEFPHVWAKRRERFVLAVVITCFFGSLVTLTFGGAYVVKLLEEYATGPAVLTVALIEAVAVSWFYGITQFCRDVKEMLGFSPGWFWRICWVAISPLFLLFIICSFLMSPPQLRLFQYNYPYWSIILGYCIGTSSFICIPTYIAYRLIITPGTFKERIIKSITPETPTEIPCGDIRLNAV

male ICR mice = assay: Mice tail suspension test; type: in vivo
Protocol: Through intragastric administration, 10 mL·kg^−1 of each sample (physiological saline for the blank control group) is administrated. After 1 h of the treatment, the mouse is held with a medical tape at a position around 2 cm from the tip of its tail and hung upside-down in the suspension cage with its head 5 cm away from the bottom of the cage. The observation starts right after the mouse is suspended for 2 min and continues for 4 min. The time during which the mouse is immobile (no struggling or only tiny movements of its body/limbs) in this 4 min is accumulated (IT, immobility time). The percentage of the improvement is calculated according to the equation: Improvement %=[IT (blank control group)−IT (compound treatment group)]/IT (blank control group)×100%

NA Transporter (hNAT) = NA Transporter (hNAT) (Homo sapiens, UniProt P23975); assay: Inhibition of [3H]-NA reuptake in HEK 293 cells stably expressing hNAT; conditions: HEK293, read-out: NA Reuptake Inhibition
Sequence of NA Transporter (hNAT) (P23975 whole entry): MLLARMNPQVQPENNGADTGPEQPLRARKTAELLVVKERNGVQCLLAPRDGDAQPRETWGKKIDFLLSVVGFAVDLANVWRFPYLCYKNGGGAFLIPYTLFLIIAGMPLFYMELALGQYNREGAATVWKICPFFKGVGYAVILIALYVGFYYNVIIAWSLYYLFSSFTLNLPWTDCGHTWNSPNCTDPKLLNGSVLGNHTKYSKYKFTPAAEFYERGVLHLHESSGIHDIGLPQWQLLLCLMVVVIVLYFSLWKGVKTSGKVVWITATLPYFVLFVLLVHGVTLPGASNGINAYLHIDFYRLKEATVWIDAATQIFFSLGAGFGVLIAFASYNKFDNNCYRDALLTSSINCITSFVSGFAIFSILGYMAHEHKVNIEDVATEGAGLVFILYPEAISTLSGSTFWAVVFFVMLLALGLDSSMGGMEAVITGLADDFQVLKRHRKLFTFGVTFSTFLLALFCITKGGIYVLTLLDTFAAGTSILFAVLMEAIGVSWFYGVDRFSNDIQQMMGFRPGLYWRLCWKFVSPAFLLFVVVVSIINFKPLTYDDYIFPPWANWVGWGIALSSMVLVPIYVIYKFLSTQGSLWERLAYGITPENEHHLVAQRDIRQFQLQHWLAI

male Kunming mice = assay: Mice forced swimming test; type: in vivo
Protocol: Through intragastric administration, 10 mL·kg^−1 of each sample (physiological saline for the blank control group) is administrated. The mice are pre-screened for swimming one day before the actual test. The mouse is placed into water (25° C., 10 cm deep) in a glass tank (height 20 cm, diameter 14 cm) and forced to swim for 6 min. Those who stop swimming at around 70-160 s are chosen for the actual test which starts 24 h later. After 1 h of the administration, the forced swimming test is performed by placing the animal into the above-mentioned environment to swim for 6 min. The accumulative immobility time for the last 4 min is recorded. Data is statistically analyzed with t-test.

DA Transporter (hDAT) = DA Transporter (hDAT) (Homo sapiens, UniProt Q01959); assay: Inhibition of [3H]-DA reuptake in HEK 293 cells stably expressing hDAT; conditions: HEK293, read-out: DA Reuptake Inhibition
Sequence of DA Transporter (hDAT) (Q01959 whole entry): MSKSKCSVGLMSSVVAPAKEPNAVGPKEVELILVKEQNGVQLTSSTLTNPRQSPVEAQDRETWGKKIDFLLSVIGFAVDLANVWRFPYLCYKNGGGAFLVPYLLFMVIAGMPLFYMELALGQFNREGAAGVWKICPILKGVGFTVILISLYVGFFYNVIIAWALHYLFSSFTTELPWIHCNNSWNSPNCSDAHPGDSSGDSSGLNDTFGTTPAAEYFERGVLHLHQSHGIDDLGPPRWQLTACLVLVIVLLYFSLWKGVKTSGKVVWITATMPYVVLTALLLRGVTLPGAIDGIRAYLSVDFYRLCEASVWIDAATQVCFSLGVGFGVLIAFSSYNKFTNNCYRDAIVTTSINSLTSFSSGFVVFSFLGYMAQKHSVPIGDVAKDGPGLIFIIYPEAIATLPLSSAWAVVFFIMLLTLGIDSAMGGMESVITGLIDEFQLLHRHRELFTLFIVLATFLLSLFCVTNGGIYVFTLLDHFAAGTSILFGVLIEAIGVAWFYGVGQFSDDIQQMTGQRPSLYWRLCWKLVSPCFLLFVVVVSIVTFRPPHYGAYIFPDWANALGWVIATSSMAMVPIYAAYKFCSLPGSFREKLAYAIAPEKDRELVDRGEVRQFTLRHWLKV

NA reuptake = assay: Yohimbine toxicity enhancement in mice; type: in vivo; conditions: for Mortality (%) 1 h / Mortality (%) 2 h / Mortality (%) 4 h / Mortality (%) 5 h / Mortality (%) 24 h: Yohimbine 25 mg/kg s.c. 1 h later, n = 10
Text: as §1
a) Principles • Yohimbine can prevent the binding of NA to the receptor by occupying α2 receptor. If an antidepressant which inhibits the deactivation of NA or inhibits NA reuptake is taken together with Yohimbine, an individual may be poisoned even to death due to the raised NA concentration.
b) Test Method • This test consists of 5 experimental groups: Yohimbine control group, VI-2-1 (30 mg/kg) group, VI-2-2 (18 mg/kg) group, VI2-3 (11 mg/kg) group and VI-2-4 (6.5 mg/kg) group. The highest dose used in the DL-5-HTP potentiation test in mice is designated as the reference for the highest dose group, down from which 4 dosage groups are set with a dose ratio of 0.6 across groups. For each VI-2 group, the compound at the corresponding dosage is administrated orally, or as in the case of the Yohimbine control group, N.S is given to the animals. One hour after the treatment, Yohimbine at 25 mg/kg (life-threatening dose for the animal) is administrated by subcutaneous injection to the mice in all groups. The mortality in each group is observed and recorded at 1, 2, 4, 5 and 24 h after the administration of Yohimbine. The ED50 value is calculated accordingly.

SMILES: CN(C)CCC(c1ccc(Cl)c(Cl)c1)N1CCCC1 (centres unmarked) [VI-2, N,N-dimethyl-3-(3,4-dichlorophenyl)-3-(pyrrolidin-1-yl)-propylamine]
- bacteriostatic action ([1]; 5000 μg per dish, TA98 without S9 and TA97 with S9, none at other dosages): bacteriostatic action is showed
- Ames test result ([1]; TA97, TA98, TA100, TA102, with or without S9, all test dosages): negative
- anti-tremor effect (in words) (DA reuptake; 30 mg/kg oral, oxotremorine 0.5 mg/kg i.p. 1 h later): No anti-tremor effect is observed
- Side overturn (in words) (DA reuptake; 120 mg/kg or lower): rarely observed
- Side overturn (in words) (DA reuptake; 300 mg/kg and 200 mg/kg oral): Side overturn of different extent is observed
- Activity of the mice (in words) (DA reuptake; 300→200→120→60→30 mg/kg = Model): The best activity of the mice is observed in the 300 mg/kg group
- intensity of tremors versus dose (in words) (DA reuptake; Model→30→60→120→200→300 mg/kg from high to low): Clear dose-effect relationship is observed
- antagonism of the tremor symptom (in words) (DA reuptake; by enhancing the function of DA): can partially antagonize the tremor symptom
- doses giving improvement of tremor (in words) (DA reuptake; oral 30-300 mg/kg, oxotremorine 0.5 mg/kg i.p.): An improvement is only observed at doses up to 120 mg/kg
- enhancement of DA function at therapeutic doses (in words) (DA reuptake; therapeutic doses (10-20 mg/kg)): no such enhancement
- inhibition effect towards the reuptake of 5-HT (in words) (5-HT Transporter (hSERT)): relatively strong inhibition effect
- inhibition at 10 µM (5-HT Transporter (hSERT); HEK293, read-out: 5-HT Reuptake Inhibition): 94.8%
- IT (sec), immobility time (male ICR mice; 20.0 mg/kg single intragastric administration, 1 h before test, 4 min observation, n=12): 36.19 ± 25.78 s
- Improvement (%) (male ICR mice; 20.0 mg/kg single oral administration, versus blank control IT): 63.52%
- effect on immobility time in the tail suspension test (in words) (male ICR mice; 20 mg/kg, efficacy similar to Venlafaxine): significant reduction in the immobility time
- inhibition at 10 µM (NA Transporter (hNAT)): 100%
- effect in the forced swimming test (in words) (male Kunming mice; 20 mg/kg): significant reduction in the immobility time
- IT (sec), immobility time (male Kunming mice; 20.0 mg/kg single intragastric administration, 1 h before test, last 4 min of 6 min, n=12): 74.9 ± 37.8 s
- inhibition at 10 µM (DA Transporter (hDAT)): 103%
- Mortality (%) 1 h (NA reuptake; 6.5 mg/kg oral): 0%
- Mortality (%) 2 h (NA reuptake; 6.5 mg/kg oral): 0%
- Mortality (%) 4 h (NA reuptake; 6.5 mg/kg oral): 0%
- Mortality (%) 5 h (NA reuptake; 6.5 mg/kg oral): 0%
- Mortality (%) 24 h (NA reuptake; 6.5 mg/kg oral): 0%
- Mortality (%) 1 h (NA reuptake; 11 mg/kg oral): 0%
- Mortality (%) 2 h (NA reuptake; 11 mg/kg oral): 1%
- Mortality (%) 4 h (NA reuptake; 11 mg/kg oral): 0%
- Mortality (%) 5 h (NA reuptake; 11 mg/kg oral): 0%
- Mortality (%) 24 h (NA reuptake; 11 mg/kg oral): 0%
- Mortality (%) 1 h (NA reuptake; 18 mg/kg oral): 1%
- Mortality (%) 2 h (NA reuptake; 18 mg/kg oral): 2%
- Mortality (%) 4 h (NA reuptake; 18 mg/kg oral): 0%
- Mortality (%) 5 h (NA reuptake; 18 mg/kg oral): 0%
- Mortality (%) 24 h (NA reuptake; 18 mg/kg oral): 0%
- Mortality (%) 1 h (NA reuptake; 30 mg/kg oral): 2%
- Mortality (%) 2 h (NA reuptake; 30 mg/kg oral): 0%
- Mortality (%) 4 h (NA reuptake; 30 mg/kg oral): 0%
- Mortality (%) 5 h (NA reuptake; 30 mg/kg oral): 0%
- Mortality (%) 24 h (NA reuptake; 30 mg/kg oral): 0%
- enhancement of Yohimbine toxicity (in words) (NA reuptake; 30, 18 and 11 mg/kg oral, significant dose-effect relationship): enhances the toxicity of Yohimbine
- ED50 (NA reuptake; Mus musculus, oral, Bliss method, DAS statistical software): 32.8 mg/kg
